Results from US12077503B2, “Substituted cyclic amides and their use as herbicides” (FMC CORPORATION, priority 2015, dated 2024).

Experiments:
Format in all cases: in vivo
[1] = tested on: giant foxtail (Setaria faberi); experiment: Test G Post-Emergence Protocol; conditions: Setaria faberi, post-emergence, 312 h; for pest or weed control at 15.625 g/ha: 15.625 g ai/ha, evaluated after 13 days (100=total damage to plant; 0=no damage to plant), read-out: Foxtail, Giant damage rating; for pest or weed control at 62.5 g/ha: 62.5 g ai/ha, read-out: Foxtail, Giant damage rating (100=total damage to plant; 0=no damage to plant); for pest or weed control at 62.5 g/ha / pest or weed control at 250 g/ha: evaluated after 13 days; for pest or weed control at 250 g/ha: 250 g ai/ha, read-out: damage to plant, Foxtail, Giant (100=total damage to plant; 0=no damage to plant)
Method in brief: (§1)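 A glasshouse post-emergence test: 8-day-old plants sprayed at 15.625, 62.5 or 250 g/ha, then grown at 24/16 °C day/night with 14 h light and 65% humidity. Damage rated 13 days later, 0–100.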

[2] = tested on: velvetleaf (Abutilon theophrasti); experiment: Test G Post-Emergence Protocol; conditions: Abutilon theophrasti, post-emergence, 312 h; for pest or weed control at 15.625 g/ha: 15.625 g ai/ha, evaluated after 13 days (100=total damage to plant; 0=no damage to plant), read-out: Velvetleaf damage rating; for pest or weed control at 62.5 g/ha: 62.5 g ai/ha, read-out: Velvetleaf damage rating (100=total damage to plant; 0=no damage to plant); for pest or weed control at 62.5 g/ha / pest or weed control at 250 g/ha: evaluated after 13 days; for pest or weed control at 250 g/ha: 250 g ai/ha, read-out: damage to plant, Velvetleaf (100=total damage to plant; 0=no damage to plant)
Method in brief: as §1

[3] = tested on: redroot pigweed (Amaranthus retroflexus); experiment: Test G Post-Emergence Protocol; conditions: Amaranthus retroflexus, post-emergence, 312 h; for pest or weed control at 15.625 g/ha: 15.625 g ai/ha, evaluated after 13 days (100=total damage to plant; 0=no damage to plant), read-out: Pigweed, Redroot damage rating; for pest or weed control at 62.5 g/ha: 62.5 g ai/ha, read-out: Pigweed, Redroot damage rating (100=total damage to plant; 0=no damage to plant); for pest or weed control at 62.5 g/ha / pest or weed control at 250 g/ha: evaluated after 13 days; for pest or weed control at 250 g/ha: 250 g ai/ha, read-out: damage to plant, Pigweed, Redroot (100=total damage to plant; 0=no damage to plant)
Method in brief: as §1

[4] = tested on: ivy-leaved morning glory (Ipomoea hederacea); experiment: Test G Post-Emergence Protocol; conditions: Ipomoea, post-emergence, 312 h; for pest or weed control at 15.625 g/ha: 15.625 g ai/ha, evaluated after 13 days (100=total damage to plant; 0=no damage to plant), read-out: Morningglory, Ivy-leaved damage rating; for pest or weed control at 62.5 g/ha: 62.5 g ai/ha, read-out: Morningglory, Ivy-leaved damage rating (100=total damage to plant; 0=no damage to plant); for pest or weed control at 62.5 g/ha / pest or weed control at 250 g/ha: evaluated after 13 days; for pest or weed control at 250 g/ha: 250 g ai/ha, read-out: damage to plant, Morningglory, Ivy-leaved (100=total damage to plant; 0=no damage to plant)
Method in brief: as §1

[5] = tested on: corn (Zea mays); experiment: Test G Post-Emergence Protocol; conditions: Zea mays, post-emergence, 312 h; for plant injury at 15.625 g/ha: 15.625 g ai/ha, evaluated after 13 days (100=total damage to plant; 0=no damage to plant), read-out: Corn damage rating; for plant injury at 62.5 g/ha: 62.5 g ai/ha, read-out: Corn damage rating (100=total damage to plant; 0=no damage to plant); for plant injury at 62.5 g/ha / plant injury at 250 g/ha: evaluated after 13 days; for plant injury at 250 g/ha: 250 g ai/ha, read-out: damage to plant, Corn (100=total damage to plant; 0=no damage to plant)
Method in brief: as §1

[6] = tested on: barnyardgrass (Echinochloa crus-galli); experiment: Test G Post-Emergence Protocol; conditions: Echinochloa crus-galli, post-emergence, 312 h; for pest or weed control at 15.625 g/ha: 15.625 g ai/ha, evaluated after 13 days (100=total damage to plant; 0=no damage to plant), read-out: Barnyardgrass damage rating; for pest or weed control at 62.5 g/ha: 62.5 g ai/ha, read-out: Barnyardgrass damage rating (100=total damage to plant; 0=no damage to plant); for pest or weed control at 62.5 g/ha / pest or weed control at 250 g/ha: evaluated after 13 days; for pest or weed control at 250 g/ha: 250 g ai/ha, read-out: damage to plant, Barnyardgrass (100=total damage to plant; 0=no damage to plant)
Method in brief: as §1

[7] = tested on: giant foxtail (Setaria faberi); experiment: Test G Pre-Emergence Protocol; conditions: Setaria faberi, pre-emergence, 312 h, evaluated after 13 days; for pest or weed control at 15.625 g/ha: 15.625 g ai/ha; for pest or weed control at 15.625 g/ha / pest or weed control at 250 g/ha: read-out: Foxtail, Giant damage rating (100=total damage to plant; 0=no damage to plant); for pest or weed control at 62.5 g/ha: 62.5 g ai/ha, 100=total damage to plant, 0=no damage to plant, read-out: plant damage rating, Foxtail, Giant; for pest or weed control at 250 g/ha: 250 g ai/ha
Method in brief: (§2)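 Under a 24/16° C day/night regime with 14 h light and 65% humidity, sown pots were sprayed after one day with compound (15.625, 62.5 or 250 g/ha; 50:50 acetone/water, 0.5% Tween 20). Damage was assessed visually 13 days later, 0 to 100.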

[8] = tested on: velvetleaf (Abutilon theophrasti); experiment: Test G Pre-Emergence Protocol; conditions: Abutilon theophrasti, pre-emergence, 312 h, evaluated after 13 days; for pest or weed control at 15.625 g/ha: 15.625 g ai/ha; for pest or weed control at 15.625 g/ha / pest or weed control at 250 g/ha: read-out: Velvetleaf damage rating (100=total damage to plant; 0=no damage to plant); for pest or weed control at 62.5 g/ha: 62.5 g ai/ha, 100=total damage to plant, 0=no damage to plant, read-out: plant damage rating, Velvetleaf; for pest or weed control at 250 g/ha: 250 g ai/ha
Method in brief: as §2

[9] = tested on: redroot pigweed (Amaranthus retroflexus); experiment: Test G Pre-Emergence Protocol; conditions: Amaranthus retroflexus, pre-emergence, 312 h, evaluated after 13 days; for pest or weed control at 15.625 g/ha: 15.625 g ai/ha; for pest or weed control at 15.625 g/ha / pest or weed control at 250 g/ha: read-out: Pigweed, Redroot damage rating (100=total damage to plant; 0=no damage to plant); for pest or weed control at 62.5 g/ha: 62.5 g ai/ha, 100=total damage to plant, 0=no damage to plant, read-out: plant damage rating, Pigweed, Redroot; for pest or weed control at 250 g/ha: 250 g ai/ha
Method in brief: as §2

[10] = tested on: ivy-leaved morning glory (Ipomoea hederacea); experiment: Test G Pre-Emergence Protocol; conditions: Ipomoea, pre-emergence, 312 h, evaluated after 13 days; for pest or weed control at 15.625 g/ha: 15.625 g ai/ha, read-out: Morning-glory, Ivy-leaved damage rating (100=total damage to plant; 0=no damage to plant); for pest or weed control at 62.5 g/ha: 62.5 g ai/ha, 100=total damage to plant, 0=no damage to plant, read-out: plant damage rating, Morningglory, Ivy-leaved; for pest or weed control at 250 g/ha: 250 g ai/ha, read-out: Morningglory, Ivy-leaved damage rating (100=total damage to plant; 0=no damage to plant)
Method in brief: as §2

[11] = tested on: corn (Zea mays); experiment: Test G Pre-Emergence Protocol; conditions: Zea mays, pre-emergence, 312 h, evaluated after 13 days; for plant injury at 15.625 g/ha: 15.625 g ai/ha; for plant injury at 15.625 g/ha / plant injury at 250 g/ha: read-out: Corn damage rating (100=total damage to plant; 0=no damage to plant); for plant injury at 62.5 g/ha: 62.5 g ai/ha, 100=total damage to plant, 0=no damage to plant, read-out: plant damage rating, Corn; for plant injury at 250 g/ha: 250 g ai/ha
Method in brief: as §2

[12] = tested on: barnyardgrass (Echinochloa crus-galli); experiment: Test G Pre-Emergence Protocol; conditions: Echinochloa crus-galli, pre-emergence, 312 h, evaluated after 13 days; for pest or weed control at 15.625 g/ha: 15.625 g ai/ha, read-out: Barnyard grass damage rating (100=total damage to plant; 0=no damage to plant); for pest or weed control at 62.5 g/ha: 62.5 g ai/ha, 100=total damage to plant, 0=no damage to plant, read-out: plant damage rating, Barnyardgrass; for pest or weed control at 250 g/ha: 250 g ai/ha, read-out: Barnyardgrass damage rating (100=total damage to plant; 0=no damage to plant)
Method in brief: as §2

Structure (SMILES) | pest or weed control at 15.625 g/ha [1] | pest or weed control at 62.5 g/ha [1] | pest or weed control at 250 g/ha [1] | pest or weed control at 15.625 g/ha [2] | pest or weed control at 62.5 g/ha [2] | pest or weed control at 250 g/ha [2] | pest or weed control at 15.625 g/ha [3] | pest or weed control at 62.5 g/ha [3] | pest or weed control at 250 g/ha [3] | pest or weed control at 15.625 g/ha [4] | pest or weed control at 62.5 g/ha [4] | pest or weed control at 250 g/ha [4] | plant injury at 15.625 g/ha [5] | plant injury at 62.5 g/ha [5] | plant injury at 250 g/ha [5] | pest or weed control at 15.625 g/ha [6] | pest or weed control at 62.5 g/ha [6] | pest or weed control at 250 g/ha [6] | pest or weed control at 15.625 g/ha [7] | pest or weed control at 62.5 g/ha [7] | other results
Cc1c(Br)cccc1NC(=O)[C@@H]1C(=O)N(C)C[C@H]1c1ccc(C(F)(F)F)cc1 (racemic) [Compound 1619] | 0% | 60% | 70% | 0% | 0% | 0% | 0% | 20% | 50% | 0% | 10% | 30% | 0% | 0% | 10% | 0% | 10% | 70% | 0% | 0% | pest or weed control at 250 g/ha [7]: 70%; pest or weed control at 15.625 g/ha [8]: 0%; pest or weed control at 62.5 g/ha [8]: 0%; pest or weed control at 250 g/ha [8]: 10%; pest or weed control at 15.625 g/ha [9]: 0%; pest or weed control at 62.5 g/ha [9]: 0%; pest or weed control at 250 g/ha [9]: 20%; pest or weed control at 15.625 g/ha [10]: 0%; pest or weed control at 62.5 g/ha [10]: 0%; pest or weed control at 250 g/ha [10]: 10%; plant injury at 15.625 g/ha [11]: 0%; plant injury at 62.5 g/ha [11]: 0%; plant injury at 250 g/ha [11]: 0%; pest or weed control at 15.625 g/ha [12]: 0%; pest or weed control at 62.5 g/ha [12]: 0%; pest or weed control at 250 g/ha [12]: 10%
CN1C[C@@H](c2ccc(C(F)(F)F)cc2)[C@H](C(=O)Nc2ccc(C#N)cc2Cl)C1=O (racemic) [Compound 1620] | 0% | 0% | 0% | 0% | 0% | 0% | 0% | 0% | 0% | 0% | 0% | 0% | 0% | 0% | 0% | 0% | 0% | 0% | 0% | 0% | pest or weed control at 250 g/ha [7]: 0%; pest or weed control at 15.625 g/ha [8]: 0%; pest or weed control at 62.5 g/ha [8]: 0%; pest or weed control at 250 g/ha [8]: 0%; pest or weed control at 15.625 g/ha [9]: 0%; pest or weed control at 62.5 g/ha [9]: 0%; pest or weed control at 250 g/ha [9]: 0%; pest or weed control at 15.625 g/ha [10]: 0%; pest or weed control at 62.5 g/ha [10]: 0%; pest or weed control at 250 g/ha [10]: 0%; plant injury at 15.625 g/ha [11]: 0%; plant injury at 62.5 g/ha [11]: 0%; plant injury at 250 g/ha [11]: 0%; pest or weed control at 15.625 g/ha [12]: 0%; pest or weed control at 62.5 g/ha [12]: 0%; pest or weed control at 250 g/ha [12]: 0%
CN1C[C@@H](c2ccc(C(F)(F)F)cc2)[C@H](C(=O)Nc2nccc(=O)[nH]2)C1=O (racemic) [Compound 1622] | 0% | 0% | 0% | 0% | 0% | 0% | 0% | 0% | 0% | 0% | 0% | 0% | 0% | 0% | 0% | 0% | 0% | 0% | 0% | 0% | pest or weed control at 250 g/ha [7]: 0%; pest or weed control at 15.625 g/ha [8]: 0%; pest or weed control at 62.5 g/ha [8]: 0%; pest or weed control at 250 g/ha [8]: 0%; pest or weed control at 15.625 g/ha [9]: 0%; pest or weed control at 62.5 g/ha [9]: 0%; pest or weed control at 250 g/ha [9]: 0%; pest or weed control at 15.625 g/ha [10]: 0%; pest or weed control at 62.5 g/ha [10]: 0%; pest or weed control at 250 g/ha [10]: 0%; plant injury at 15.625 g/ha [11]: 0%; plant injury at 62.5 g/ha [11]: 0%; plant injury at 250 g/ha [11]: 0%; pest or weed control at 15.625 g/ha [12]: 0%; pest or weed control at 62.5 g/ha [12]: 0%; pest or weed control at 250 g/ha [12]: 0%
